Measured values: PubChem BioAssay AID2060352 (Molecular Pharmacology Branch, DTP, NCI, 2025)
pIC50: −log10 of the molar value.

System: 616215-338-R-J1-PDC spheroid with HUVEC/MSC, viability
Assay: Anticancer human tumor 616215-338-R-J1-PDC patient-derived colon adenocarcinoma cell line growth inhibition [TAK]
Conditions: for pIC50: curve of first compound; for viability, T/C: stronger effect = lower value; active means viability on the fitted dose curve at most 10% of control; inactive means the rest
Text: Combinatorial screen of targeted agents with TAK-243 and ipatasertib in multi-cell type tumor spheroids
A high-throughput screen of multi-cell type tumor spheroids was designed to identify active combinations of targeted small molecules and TAK-243 or ipatasertib. Complex spheroids include a stromal component modeled by human endothelial cells (HUVEC) and fibroblasts modeled by human mesenchymal stem cells (MSCs). The concentration ranges selected for each drug and investigational agent were based upon clinically achievable concentrations if the clinical Cmax of the agent was known.
Compounds. The drugs and investigational agents: TAK-243 (785004), ipatasertib (767898), everolimus (733504), selumetinib (741078), bortezomib (756655), trametinib (758246), ixazomib (758254), vemurafenib (761431), dabrafenib (764134), sapanisertib (764658), alpelisib (765974), and copanlisib (816437), were obtained from the National Cancer Institute (NCI) Developmental Therapeutics Program Chemical Repository. The FDA-approved anticancer drug set is available from the NCI Developmental Therapeutics Program. […] The stock solutions were prepared in dimethyl sulfoxide (DMSO, Sigma-Aldrich, St. Louis, MO, cat. D2650) at 800-fold the tested concentration and stored at -70 degrees C prior to their use. All drugs and investigational agents were tested over a range starting from a high concentration at or near the clinical Cmax and decreasing in half-log increments. If the clinical Cmax for an agent had not been determined, the highest concentration tested was 10 microM.
NCI60 Cell Culture. NCI60 cell lines were obtained from the NCI Developmental Therapeutics Program Tumor Repository. For each lot of cells, the Repository performed Applied Biosystems AmpFLSTR Identifiler testing with PCR amplification to confirm consistency with the published Identifier STR profile for each cell line. Cells were kept in continuous culture for no more than 20 passages. The optimal seeding densities for each of the cell lines at each time point assessed were determined prior to performing the concentration response studies. Briefly, the NCI60 human tumor lines were grown as monolayers in RPMI 1640 medium supplemented with 10% FBS and 2 mmol/L L-glutamine.
An additional 2 lines were from the NCI60 cell line panel including melanomas, MALME-3M and SK-MEL-2. Pooled donor human umbilical vein endothelial cells (HUVEC, Lonza, cat. CC-2519) and human mesenchymal stem cells (hMSC, Lonza, cat. PT-2501) were purchased from Lonza (Walkersville, MD).
PDMR cell lines were grown in complete medium (DC medium): Dulbecco's modified Eagle's medium (DMEM)/F12 supplemented with 5% fetal bovine serum (FBS), 2 mM L-glutamine, 100 U/mL penicillin and 100 µg/ml streptomycin, 0.4 µg/ml hydrocortisone, 10 ng/ml epidermal growth factor (EGF) recombinant human protein, 24 µg/mL adenine, and 0.1 mg/mL primocin. During culture from frozen stock vials, PDMR cells were cultured in the same medium containing 10 µM Y-27632 (see Table 3). The PDCs were cultured in complete DMEM/F12 media without 10 microM Y-27632 dihydrochloride for at least two passages prior to the screen. The pooled donor HUVEC and hMSC were cultured in endothelial cell growth medium 2 (PromoCell, Heidelberg, Germany, cat. C-22011) and mesenchymal stem cell growth medium 2 (PromoCell, cat. C-28009), respectively. For all experiments, HUVEC and hMSC were used at passages </=5.
For the pre-screen, cell seeding densities were determined from a titration spanning the range from 5,000 to 313 cells per well. The mct-spheroids including 60% malignant cells, 25% HUVEC and 15% MSC dispensed as a mixture into U-bottom Ultra-Low Attachment 384-well plates (Corning, NY)
High-throughput Drug Combination Screening.
Prior to their inoculation into 384-well plates, malignant cells, HUVEC, and hMSC were removed from T flasks using TrypLE express (Thermo Fisher Scientific, cat. 12605036) and harvested by centrifugation for 5 min at 233 x g. […]
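Further: spheroids exposed to drugs for 7 days before readout.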

CC(C)CC(NC(=O)C(Cc1ccccc1)NC(=O)c1cnccn1)B(O)O (stereo not given) + CC(C)NCC(C(=O)N1CCN(c2ncnc3c2C(C)CC3O)CC1)c1ccc(Cl)cc1
inactive: viability, T/C (second compound 0.3 µM, first compound 31.6 pM) 90.8% | viability, T/C (second compound 0.3 µM, first compound 0.0001 µM) 99.2% | viability, T/C (second compound 0.3 µM, first compound 0.000316 µM) 90.8% | viability, T/C (second compound 0.3 µM, first compound 0.001 µM) 95.1% | viability, T/C (second compound 0.3 µM, first compound 0.00316 µM) 96.6% | viability, T/C (second compound 0.3 µM, first compound 0.01 µM) 112% | viability, T/C (second compound 0.949 µM, first compound 31.6 pM) 114% | viability, T/C (second compound 0.949 µM, first compound 0.0001 µM) 109% | viability, T/C (second compound 0.949 µM, first compound 0.000316 µM) 121% | viability, T/C (second compound 0.949 µM, first compound 0.001 µM) 112% | viability, T/C (second compound 0.949 µM, first compound 0.00316 µM) 111% | viability, T/C (second compound 0.949 µM, first compound 0.01 µM) 80.3% | viability, T/C (second compound 3 µM, first compound 31.6 pM) 81.1% | viability, T/C (second compound 3 µM, first compound 0.0001 µM) 88.7% | viability, T/C (second compound 3 µM, first compound 0.000316 µM) 88.7% | viability, T/C (second compound 3 µM, first compound 0.001 µM) 80.9% | viability, T/C (second compound 3 µM, first compound 0.00316 µM) 84.8% | viability, T/C (second compound 9.49 µM, first compound 31.6 pM) 33.9% | viability, T/C (second compound 9.49 µM, first compound 0.0001 µM) 35.2% | viability, T/C (second compound 9.49 µM, first compound 0.000316 µM) 26.4% | viability, T/C (second compound 9.49 µM, first compound 0.001 µM) 29.8% | viability, T/C (second compound 9.49 µM, first compound 0.00316 µM) 32.2% | viability, T/C (second compound 30 µM, first compound 31.6 pM) 15.3% | viability, T/C (second compound 30 µM, first compound 0.0001 µM) 15.2% | viability, T/C (second compound 30 µM, first compound 0.000316 µM) 14.1% | viability, T/C (second compound 30 µM, first compound 0.001 µM) 13.2%
< 8.00: pIC50 (second compound 0.3 µM) | pIC50 (second compound 0.949 µM)
> 10.50: pIC50 (second compound 9.49 µM) | pIC50 (second compound 30 µM)
8.27: pIC50 (second compound 3 µM)
active: viability, T/C (second compound 3 µM, first compound 0.01 µM) 8.39% | viability, T/C (second compound 9.49 µM, first compound 0.01 µM) 0.75% | viability, T/C (second compound 30 µM, first compound 0.00316 µM) 15.1% | viability, T/C (second compound 30 µM, first compound 0.01 µM) 0.24%

Cn1cnc2c(F)c(Nc3ccc(Br)cc3Cl)c(C(=O)NOCCO)cc21 + CC(C)NCC(C(=O)N1CCN(c2ncnc3c2C(C)CC3O)CC1)c1ccc(Cl)cc1
6.71: pIC50 (second compound 0.949 µM)
inactive: viability, T/C (second compound 0.3 µM, first compound 0.00949 µM) 128% | viability, T/C (second compound 0.3 µM, first compound 0.03 µM) 145% | viability, T/C (second compound 0.3 µM, first compound 0.0949 µM) 134% | viability, T/C (second compound 0.3 µM, first compound 0.3 µM) 97.5% | viability, T/C (second compound 0.3 µM, first compound 0.949 µM) 28.6% | viability, T/C (second compound 0.3 µM, first compound 3 µM) 10.1% | viability, T/C (second compound 0.949 µM, first compound 0.00949 µM) 127% | viability, T/C (second compound 0.949 µM, first compound 0.03 µM) 110% | viability, T/C (second compound 0.949 µM, first compound 0.0949 µM) 68.7% | viability, T/C (second compound 0.949 µM, first compound 0.3 µM) 37.1% | viability, T/C (second compound 0.949 µM, first compound 0.949 µM) 16.3% | viability, T/C (second compound 3 µM, first compound 0.00949 µM) 62.6% | viability, T/C (second compound 3 µM, first compound 0.03 µM) 39.6% | viability, T/C (second compound 3 µM, first compound 0.0949 µM) 26.2% | viability, T/C (second compound 3 µM, first compound 0.3 µM) 18.2% | viability, T/C (second compound 9.49 µM, first compound 0.00949 µM) 20.1% | viability, T/C (second compound 9.49 µM, first compound 0.03 µM) 16.6% | viability, T/C (second compound 9.49 µM, first compound 0.0949 µM) 12.3% | viability, T/C (second compound 30 µM, first compound 0.00949 µM) 9.63%
> 8.02: pIC50 (second compound 9.49 µM) | pIC50 (second compound 30 µM)
7.74: pIC50 (second compound 3 µM)
6.18: pIC50 (second compound 0.3 µM)
active: viability, T/C (second compound 0.949 µM, first compound 3 µM) 1.88% | viability, T/C (second compound 3 µM, first compound 0.949 µM) 7.02% | viability, T/C (second compound 3 µM, first compound 3 µM) 2.31% | viability, T/C (second compound 9.49 µM, first compound 0.3 µM) 8.61% | viability, T/C (second compound 9.49 µM, first compound 0.949 µM) 3.42% | viability, T/C (second compound 9.49 µM, first compound 3 µM) 1.74% | viability, T/C (second compound 30 µM, first compound 0.03 µM) 9.43% | viability, T/C (second compound 30 µM, first compound 0.0949 µM) 6.77% | viability, T/C (second compound 30 µM, first compound 0.3 µM) 4.12% | viability, T/C (second compound 30 µM, first compound 0.949 µM) 1.89% | viability, T/C (second compound 30 µM, first compound 3 µM) 1.35%
